{
  "source": "patent US20250325497A1",
  "about": "“OPHTHALMIC COMPOSITION COMPRISING RESVERATROL FOR TREATING DRY EYE SYNDROME” (Laboratoires THEA, priority 2022, published 2025)",
  "system": "reconstituted Human Corneal Epithelium (HCE)",
  "test": "Preliminary cytotoxicity: modified MTT viability test on reconstituted HCE",
  "type": "cell-based",
  "details": "for MTT: Cellular viability (%): relative to negative control",
  "method": "An initial study on human corneal epithelium (HCE) was conducted to check the cytotoxicity of a selection of tear substitutes in order to further assess their protection against superficial corneal epithelium oxidative stress damages induced by UVA+B light (290-400 nm).\nThe preliminary cytotoxicity was performed after 4 h acute exposure and after 8 h exposure (repeated twice a day with the final readout the day after; 0.015 J/cm^2) to tear substitutes using 2 assays: MTT test and TUNEL assay.\nThe preliminary cytotoxicity was tested in vitro for the following tear substitutes: • Composition according to Example I • Visu XL (market reference containing 0.1% Coenzyme Q10, 0.1% cross-linked hyaluronic acid (HA), 0.5% Vitamin E TPGS; pH 6.9) on the HCE model compared to Benzalkonium Chloride (BAK) 0.1% solution (positive control) and saline solution (NaCl 0.9%; negative control).\nAn EPISKIN reconstituted Human Corneal Epithelium (HCE) of 0.5 cm^2 was used for the evaluation. Epithelial human Immortalized cells (HICEC) were deposed on a polycarbonate filter and cultured at the air-liquid interface for 5 days in a chemically defined medium in order to form a structured epithelium. The inserts containing the tissues at day 5 (thickness: 55 μm; 5.5 cell layers) were shipped at room temperature in a multi-well plate filled with an agarose nutrient solution in which they were embedded.\nThe HCEs were placed in 6 well plates with 1 mL maintenance medium overnight in incubator CO2 at 37° C. and 90% humidity. The tissues were then used the day after, following acute 4 h exposure and 8 h repeated exposure and overnight protocol. […]\nTwo exposure protocols were carried on: • acute exposure protocol (4 h): 4 h exposure followed by tissues rinsing • repeated exposure and overnight protocol (8 h+overnight): twice daily exposure, with at least 4 hours between the two treatments and readout after overnight incubation. […]\nThe Accuracy of the spectro-photometrical measurements are in the range between 0 and 2 OD: <+/−(1%+10 mOD). The Raw data of OD are directly recorded in the Microplate autoreader (TECAN INFINITE M-200) further processed by Software Magellan 6.5.\nThe mean of blank OD has been subtracted to every single OD value. The viability of each biological replicate has been calculated dividing the respective OD mean for the optical density average of the negative control (NC) Biological Replicates. The viability % mean of tissues treated with the same substance has been calculated. […]\nTest substance meets the acceptance criteria if the Standard Deviation value (SD) of the cell viability % (expressed as percentage compared to NC) between the 2 tissue replicates is <18%.",
  "data": [
    {"substance": "Benzalkonium Chloride [BAK 0.1%]", "values": [
      {"measurement": "MTT: Cellular viability (%)", "setting": "4 H acute exposure", "result": 9.98, "unit": "%"},
      {"measurement": "MTT: Cellular viability (%)", "setting": "8 H+ OVERNIGHT repeated exposure", "result": 0.95, "unit": "%"},
      {"measurement": "Cytotoxicity by MTT test (in words)", "setting": "4 h acute exposure", "result": "severe cytotoxicity"},
      {"measurement": "Cytotoxicity by MTT test (in words)", "setting": "8 h followed by overnight incubation, cut-off 60% cell viability", "result": "severe cytotoxicity"}
    ]}
  ]
}
